Where two headings read alike, the source gives them in different places.
What was measured:
NAMPT = NAMPT (Homo sapiens (Human), UniProt P43490); assay: Biochemical Inhibition Assay (NAMPT enzymatic reaction, NMN quantified by mass spectrometry); conditions: 33 nM recombinant His-tagged NAMPT, 1 μM NAM, 30 min at rt
In short: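 His-tagged human NAMPT from E. coli preincubated 15 min at rt with compound in 50 mM Hepes pH 7.5, 50 mM NaCl, 5 mM MgCl2, 1 mM THP, then reacted 30 min at rt with 1 μM NAM, […] PRPP, 2.5 mM ATP. NMN quantified by RapidFire mass spectrometry, normalized to L-Cystathionine, background subtracted.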

A2780 cells = assay: In-Vitro Cell Proliferation Assay (SRB); conditions: Homo sapiens, A2780, 72 h
[1] = read-out: Cell Proliferation (IC50)
[2] = read-out: Cell Proliferation (IC50), A2780 cells, 72 h, sulforhodamine B

Chain of NAMPT (P43490 whole entry): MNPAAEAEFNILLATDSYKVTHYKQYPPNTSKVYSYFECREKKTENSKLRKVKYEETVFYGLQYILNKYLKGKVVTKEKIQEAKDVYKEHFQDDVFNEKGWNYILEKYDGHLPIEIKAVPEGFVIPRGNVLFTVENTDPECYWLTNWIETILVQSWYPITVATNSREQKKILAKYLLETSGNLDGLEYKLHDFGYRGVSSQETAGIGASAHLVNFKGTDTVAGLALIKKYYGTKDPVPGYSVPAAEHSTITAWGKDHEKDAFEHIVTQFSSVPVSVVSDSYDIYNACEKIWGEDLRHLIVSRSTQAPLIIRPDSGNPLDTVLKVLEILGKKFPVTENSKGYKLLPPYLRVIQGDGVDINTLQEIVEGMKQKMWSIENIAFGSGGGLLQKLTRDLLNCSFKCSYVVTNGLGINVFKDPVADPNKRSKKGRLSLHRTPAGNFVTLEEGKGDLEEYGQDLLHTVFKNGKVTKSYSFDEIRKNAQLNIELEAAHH

Row | SMILES | IC50 (NAMPT) [nM] | IC50 (A2780 cells; [1]) [nM] | IC50 (A2780 cells; [2]) [nM]
1 | O=C(NCc1ccc(S(=O)(=O)c2ccc(C(F)(F)F)nc2)cn1)c1cc2ccncc2o1 [Example 79, Furo[2,3-c]pyridine-2-carboxylic acid [5-(6-trifluoromethyl-pyridine-3-sulfonyl)-pyridin-2-ylmethyl]-amide] | 20.5 | 124 | –
2 | CC(C)n1cc(S(=O)(=O)c2ccc(CNC(=O)N3Cc4ccncc4C3)nc2)cn1 [Example 80, 1,3-Dihydro-pyrrolo[3,4-c]pyridine-2-carboxylic acid [5-(1-isopropyl-1H-pyrazole-4-sulfonyl)-pyridin-2-ylmethyl]-amide] | 22.7 | 83.2 | –
3 | O=C(NCc1ncc(S(=O)(=O)c2cccc(C(F)(F)F)c2)cn1)c1cc2ccncc2o1 [Example 81, Furo[2,3-c]pyridine-2-carboxylic acid [5-(3-trifluoromethyl-benzenesulfonyl)-pyrimidin-2-ylmethyl]-amide] | 12.3 | 18.5 | –
4 | O=C(NCc1ccc(S(=O)(=O)c2ccc(C(F)(F)F)nc2)cn1)c1ccc2nccn2c1 [Example 82, Imidazo[1,2-a]pyridine-6-carboxylic acid [5-(6-trifluoromethyl-pyridine-3-sulfonyl)-pyridin-2-ylmethyl]-amide] | 72.3 | 330 | –
5 | CN(C)c1ccc(S(=O)(=O)c2ccc(CNC(=O)c3ccc4nccn4c3)nc2)cn1 [Example 83, Imidazo[1,2-a]pyridine-6-carboxylic acid [5-(6-dimethylamino-pyridine-3-sulfonyl)-pyridin-2-ylmethyl]-amide] | 9.1 | 7.3 | –
6 | CN(C)c1ccc(S(=O)(=O)c2ccc(CNC(=O)c3cnc4[nH]ncc4c3)nc2)cn1 [Example 84, 1H-Pyrazolo[3,4-b]pyridine-5-carboxylic acid [5-(6-dimethylamino-pyridine-3-sulfonyl)-pyridin-2-ylmethyl]-amide] | 27.8 | 20.4 | –
7 | O=C(NCc1ccc(S(=O)(=O)c2cc(F)cc(N3CCOCC3)c2)cn1)c1cnc2[nH]ncc2c1 [Example 85, 1H-Pyrazolo[3,4-b]pyridine-5-carboxylic acid [5-(3-fluoro-5-morpholin-4-yl-benzenesulfonyl)-pyridin-2-ylmethyl]-amide] | 32.9 | 9.7 | –
8 | Nc1ncc2c(n1)CN(C(=O)NCc1ccc(S(=O)(=O)c3cc(F)cc(F)c3)cn1)C2 [Example 86, 2-Amino-5,7-dihydro-pyrrolo[3,4-d]pyrimidine-6-carboxylic acid [5-(3,5-difluoro-benzenesulfonyl)-pyridin-2-ylmethyl]-amide] | 354 | – | 2000
9 | O=C(NCc1ccc(S(=O)(=O)N2CCC(N3CCCC3)CC2)cn1)c1cc2ccncc2o1 [Example 91, Furo[2,3-c]pyridine-2-carboxylic acid [5-(4-pyrrolidin-1-yl-piperidine-1-sulfonyl)-pyridin-2-ylmethyl]-amide] | 47.4 | 45.7 | –
10 | Cc1ccc(S(=O)(=O)c2ccc(CNC(=O)c3ccc4nccn4c3)nc2)cn1 [Example 92, Imidazo[1,2-a]pyridine-6-carboxylic acid [5-(6-methyl-pyridine-3-sulfonyl)-pyridin-2-ylmethyl]-amide] | 33.9 | – | 56.8
11 | CN(C)c1ncc(S(=O)(=O)c2ccc(CNC(=O)c3cc4ccncc4o3)nc2)s1 [Example 93, Furo[2,3-c]pyridine-2-carboxylic acid [5-(2-dimethylamino-thiazole-5-sulfonyl)-pyridin-2-ylmethyl]-amide] | 4.9 | 1.16 | –
12 | Cc1ccc(S(=O)(=O)c2ccc(CNC(=O)c3cc4ccncc4s3)nc2)cn1 [Example 95, Thieno[2,3-c]pyridine-2-carboxylic acid [5-(6-methyl-pyridine-3-sulfonyl)-pyridin-2-ylmethyl]-amide] | 37.7 | 234 | –
13 | CCS(=O)(=O)c1cccc(S(=O)(=O)c2ccc(CNC(=O)c3ccc4nccn4c3)nc2)c1 [Example 96, Imidazo[1,2-a]pyridine-6-carboxylic acid [5-(3-ethanesulfonyl-benzenesulfonyl)-pyridin-2-ylmethyl]-amide] | 19.3 | 38.1 | –
14 | CN(C)c1ncc(S(=O)(=O)c2ccc(CNC(=O)N3Cc4ccncc4C3)nc2)s1 [Example 98, 1,3-Dihydro-pyrrolo[3,4-c]pyridine-2-carboxylic acid [5-(2-dimethylamino-thiazole-5-sulfonyl)-pyridin-2-ylmethyl)-amide] | 6.6 | 4.97 | –
15 | Cn1cc(S(=O)(=O)c2ccc(CNC(=O)N3Cc4ccncc4C3)nc2)cn1 [Example 99, 1,3-Dihydro-pyrrolo[3,4-c]pyridine-2-carboxylic acid [5-(1-methyl-1H-pyrazole-4-sulfonyl)-pyridin-2-ylmethyl]-amide] | 54.7 | 1200 | –
16 | O=C(NCc1ccc(S(=O)(=O)c2cccc(F)c2)cn1)N1Cc2ccncc2C1 [Example 100, 1,3-Dihydro-pyrrolo[3,4-c]pyridine-2-carboxylic acid [5-(3-fluoro-benzenesulfonyl)-pyridin-2-ylmethyl]-amide] | 11.1 | 76.6 | –
17 | O=C(NCc1ccc(S(=O)(=O)C2CCN(C3COC3)CC2)cn1)N1Cc2ccncc2C1 [Example 104, 1,3-Dihydro-pyrrolo[3,4-c]pyridine-2-carboxylic acid [5-(1-oxetan-3-yl-piperidine-4-sulfonyl)-pyridin-2-ylmethyl]-amide] | 67.9 | 116 | –
18 | CCS(=O)(=O)c1cccc(S(=O)(=O)c2ccc(CNC(=O)c3cnc4[nH]ncc4c3)nc2)c1 [Example 106, 1H-Pyrazolo[3,4-b]pyridine-5-carboxylic acid [5-(3-ethanesulfonyl-benzenesulfonyl)-pyridin-2-ylmethyl]-amide] | 135 | 328 | –
19 | O=C(NCc1ccc(S(=O)(=O)c2ccc(C(F)(F)F)nc2)cn1)c1cnc2[nH]ncc2c1 [Example 107, 1H-Pyrazolo[3,4-b]pyridine-5-carboxylic acid [5-(6-trifluoromethyl-pyridine-3-sulfonyl)-pyridin-2-ylmethyl]-amide] | 731 | – | 1300
20 | CCCC(=O)N1CCC(S(=O)(=O)c2ccc(CNC(=O)N3Cc4ccncc4C3)nc2)CC1 [Example 108, 1,3-Dihydro-pyrrolo[3,4-c]pyridine-2-carboxylic acid [5-(1-butyryl-piperidine-4-sulfonyl)-pyridin-2-ylmethyl]-amide] | 27.7 | 358 | –
21 | CCS(=O)(=O)c1cccc(S(=O)(=O)c2ccc(CNC(=O)c3cc4ccncc4o3)nc2)c1 [Example 109, N-[[5-(3-ethylsulfonylphenyl)sulfonyl-2-pyridyl]methyl]furo[2,3-c]pyridine-2-carboxamide] | 6.8 | 15.1 | –
22 | Nc1ccc(S(=O)(=O)c2ccc(CNC(=O)c3cc4ccncc4o3)nc2)cn1 [Example 110, N-[[5-[(6-amino-3-pyridyl)sulfonyl]-2-pyridyl]methyl]furo[2,3-c]pyridine-2-carboxamide] | 13.3 | 25.9 | –
23 | O=C(NCc1ccc(S(=O)(=O)C2CCN(CC(F)(F)F)CC2)cn1)c1cnc2nccn2c1 [Example 111, N-[[5-[[1-(2,2,2-trifluoroethyl)-4-piperidyl]sulfonyl]-2-pyridyl]methyl]imidazo[1,2-a]pyrimidine-6-carboxamide] | 3 | – | 101

Source: patent publication US9458172B2, “Pyridinyl and pyrimidinyl sulfoxide and sulfone derivatives” (priority 2012, dated 2016)
